Residues, ends and D or L forms follow the SMILES beside them.
Tests used:
[1] = Cleavage of peptides by colonic tissue lysates from TNBS-induced colitis rat model, MALDI-TOF/TOF; details: 10 µM peptide, 20 µg/mL protein, 37 °C
Protocol: Adult male Sprague–Dawley rats (200–225 g; Charles River, Wilmington, MA, USA) were used in a previously described TNBS-induced acute and post-inflammatory model. Rats were housed at constant room temperature (22 ± 2 °C) and humidity (60%) with two rats per cage, unlimited access to water and food and on a 12 h–12 h light/dark cycle.
After an overnight fast, TNBS colitis was induced using a TNBS-enema (4 mg TNBS; Sigma-Aldrich, 50% ethanol) as described previously. Rats were anesthetized with a mixture of ketamine (35 mg/kg i.p.; Ketalar®, Pfizer, New York City, NY, USA) and xylazine (5 mg/kg i.p.; Rompun®, Bayer, Leverkusen, Germany), and the TNBS-enema or 0.9% saline was administered intrarectally using a flexible catheter (18 G, length 4.5 cm) to colitis and control rats, respectively. Animals were kept in a tail-up position for 1 min and were then allowed to recover in their cages with free access to water and food. […] For the post-colitis group (n = 8), a colonoscopy was performed starting from day 10 and repeated every 4 days until complete mucosal healing was observed. The rats were then sacrificed as well and colonic samples were taken.
Colonic lysates were prepared for studying their effects on cleavage patterns of added peptides with a MALDI-TOF/TOF assay. After sacrifice, a sample of approximately 50 mg of distal colon was taken from each rat. The colonic samples were immediately rinsed with Krebs solution, snap-frozen and stored at −80 °C until further processing. Sample preparation started with crushing the colonic samples on dry ice. Liquid nitrogen was used to prevent the loss of enzymatic activity due to temperature increases and the colon powders were stored at −80 °C for further experiments. […] After centrifugation, the supernatants were collected and used immediately to prepare the reaction mixtures, measure proteolytic activities with fluorogenic substrates and determine the protein content with a Bradford assay.
Colonic lysate was added to a peptide of interest to obtain the reaction mixtures with the colonic samples. Lysate and peptide were diluted so each mixture contained 10 µM peptide of interest and 20 µg/mL protein originating from the colonic tissue. These peptide and protein concentrations were based on research from Loew et al. and O’ Donoghue et al.. The mixtures were incubated at 37 °C for several incubation periods between 5 and 30 min. Afterward, the fragmentation reaction was stopped by adding trifluoroacetic acid (TFA; Alfa Aesar™, ThermoFisher, Waltham, MA, USA) to a final concentration of 2% and standard peptide (substance P, bradykinin or PAR3-based peptide) was added in a final concentration of 10 µM. Standard peptides were selected based on the mass of the peptides of interest. For each sample/peptide combination, a starting point was included as well. Here, TFA was added immediately after mixing the reaction constituents. Samples were stored at −80 °C for further MALDI-TOF/TOF experiments.
(§1) The TFA mixtures were thawed on ice and desalted using C18 zip-tips (Merck Millipore®, Burlington, MA, USA) with a capacity of 5 µg protein. Retained peptide fragments were eluted directly on the MALDI target plate. Next, 0.5 µL of a 2.5 mg/mL α-cyano-4-hydroxycinnamic acid (Sigma-Aldrich) matrix solution (in 70% acetonitrile, 0.1% TFA) was spotted on top of the sample. A 6-Peptide mixture Kit (AB Sciex, Framingham, MA, USA) containing bradykinin (2–9), angiotensin I, glu1-fibrinopeptide, ACTH (1–17), ACTH (18–39) and ACTH (7–38) was diluted with matrix and spotted on the plate as well.
(§2) MS and MS/MS data for peptide fragment identification were obtained with a MALDI-TOF/TOF instrument (4800 MALDI TOF/TOF™, Applied Biosystems, Waltham, MA, USA) and instrument parameters were set using 4000 Series Explorer™ software. MS spectra were recorded in positive reflector mode in a mass range from 500 to 4000 Da and laser intensity of 4500–4800 Hz.

tryptase = tryptase (Homo sapiens, UniProt Q15661); test: Cleavage of peptides by purified tryptase, MALDI-TOF/TOF; details: 25 nM protease, 10 µM peptide
Chain of tryptase (Q15661 31-275): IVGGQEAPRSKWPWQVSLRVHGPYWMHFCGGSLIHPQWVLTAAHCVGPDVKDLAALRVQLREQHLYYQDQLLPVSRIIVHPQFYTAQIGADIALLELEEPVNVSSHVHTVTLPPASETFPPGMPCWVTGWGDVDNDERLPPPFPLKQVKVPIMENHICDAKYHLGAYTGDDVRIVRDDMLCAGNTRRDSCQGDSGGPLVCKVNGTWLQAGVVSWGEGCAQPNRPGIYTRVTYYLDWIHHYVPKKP
Source text: Trypsin-like proteases included in the experiments are trypsin-1, -2 and -3, tryptase (Enzo LifeSciences), thrombin (Sigma-Aldrich) and cathepsin G (Sigma-Aldrich). Trypsin-1, -2 and -3 were produced as described by Koistinen et al. and Wu et al.. Two elastase-like enzymes, neutrophil elastase (Enzo LifeSciences, Farmingdale, NY, USA) and pancreatic elastase I (Sigma-Aldrich) were included as well. All enzymes were from human origin except for pancreatic elastase from porcine pancreas.
Reaction mixtures with purified enzymes were compiled in an identical way. Each mixture contained an equimolar concentration of protease (25 nM based on) and 10 µM peptide of interest and was incubated for 2, 5, 10 and 30 min at 37 °C. Substance P was added as the standard peptide except for the reaction mixtures with substance P or bradykinin as the peptide of interest, where angiotensin II (Bachem) was added.
as §1
as §2, with “Hz. The spectra were calibrated using the calibration mixture mentioned above to a mass tolerance of 0.1 Da. MS/MS spectra were recorded with high-energy collision-induced dissociation and the laser intensity was increased by 10%. Precursor mass m/z 1570.65 (Glu1-Fibrinopeptide from the calibration mixture) was used to calibrate the MS/MS spectra to a mass tolerance of 0.1 Da.” for “Hz.”
MS and MS/MS spectra were processed using DataExplorer™ software and the obtained output files were uploaded in the MS-PEP data analyzer (https://bioit.shinyapps.io/PARs/ accessed 10/08/2020) for peptide fragment identification. Identified fragments were confirmed using the MS/MS spectra and mMass 5.5.0 by Martin Strohalm. The relative intensities of the fragments were calculated as the ratio of the intensity of the peak of interest to the intensity of the peak of the standard peptide.

[2] = PAR-based peptides, 37 °C, 2, 5, 10 and 30 min

CC[C@H](C)[C@H](NC(=O)[C@H](CO)NC(=O)[C@@H]1CCCN1C(=O)[C@@H](NC(=O)[C@H](CO)NC(=O)[C@H](CC(=O)O)NC(=O)[C@H](CC(=O)O)NC(=O)CNC(=O)CNC(=O)CNC(=O)[C@@H](NC(=O)[C@H](CO)NC(=O)CNC(=O)[C@H](CO)NC(=O)[C@H](CCC(=O)O)NC(=O)[C@H](CC(=O)O)NC(=O)[C@H](Cc1ccc(O)cc1)NC(=O)[C@@H](NC(=O)[C@H](CO)NC(=O)[C@@H]1CCCN1C(=O)[C@@H](NC(=O)[C@H](CCC(N)=O)NC(=O)[C@@H](NC(=O)CNC(=O)CN)[C@@H](C)O)[C@@H](C)O)C(C)C)[C@@H](C)O)[C@@H](C)O)C(=O)N[C@@H](CC(C)C)C(=O)N1CCC[C@H]1C(=O)N[C@@H](C)C(=O)N1CCC[C@H]1C(=O)N[C@@H](CCCNC(=N)N)C(=O)NCC(=O)N[C@@H](Cc1ccc(O)cc1)C(=O)N1CCC[C@H]1C(=O)NCC(=O)N[C@@H](CCC(N)=O)C(=O)N[C@H](C(=O)N[C@@H](CS)C(=O)N[C@@H](C)C(=O)N[C@@H](CC(N)=O)C(=O)N[C@@H](CC(=O)O)C(N)=O)C(C)C [PAR4-based] (H-GGTQTPSVYDESGSTGGGDDSTPSILPAPRGYPGQVCAND-NH2)
Number of colonic samples in which the TL-sequence unmasking cleavage was observed, acute colitis ([1]; acute colitis lysates, n = 8, MALDI-TOF/TOF, PAR1-based after 30 min): five out of eight | Number of colonic samples in which the TL-sequence unmasking cleavage was observed, post-colitis ([1]; post-colitis lysates, n = 8, MALDI-TOF/TOF, PAR1-based after 30 min): two out of eight | Incubation time after which processing was significant (decrease of full-length peptide or increase of fragment), post-colitis samples ([1]; rat colonic lysate, post-colitis, 5-30 min, stopped with 2% TFA, MALDI-TOF/TOF relative intensity vs standard peptide, n = 8 animals): not in post-colitis samples | Incubation time at which the first cleavage or decrease of the full-length peptide was observed, tryptase (tryptase; 37 °C, time points 2, 5, 10, 30 min): > 30 min | TL disarming (D), Tryptase (tryptase; [2]): − | TL unmasking (U), Tryptase (tryptase; [2]): −
